Laboratory results from US20150344466A1 (SUMITOMO CHEMICAL COMPANY, LIMITED, priority 2013, published 2015).

How the values were obtained:
Assay type in all cases: in vivo
Culex pipiens pallens [1] = assay: Larvicidal test on Culex pipiens pallens, one day (Test Example 6); details: 24 h; last-instar larvae of Culex pipiens pallens; 3.5 ppm in water; one day later; read-out: death rate
In short: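 Twenty last-instar larvae were placed in 100 ml ion-exchanged water holding 0.7 ml of a 500 ppm aqueous dilution of the formulated compound, giving 3.5 ppm active ingredient. Survival was scored after one day and death rate expressed as dead/tested × 100.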

Culex pipiens pallens [2] = assay: Larvicidal test on Culex pipiens pallens, eight days (Test Example 7); details: 192 h; last-instar larvae of Culex pipiens pallens; 3.5 ppm in water; eight days later; read-out: death rate
In short: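 Twenty last-instar larvae placed in 100 ml ion-exchanged water containing test drug at 3.5 ppm active ingredient. Mortality scored after eight days; death rate = dead/tested × 100.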

Plutella xylostella = assay: Foliar spray test on Plutella xylostella on cabbage (Test Example 10); details: 120 h, third instar larvae of Plutella xylostella on cabbage, 500 ppm spray 20 ml/cup, after five days, read-out: controlling value
In short: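 Cabbage at the third–fourth true-leaf stage sprayed with test solution at 20 ml/cup, dried, then infested with 10 third-instar larvae. Insects counted after five days; controlling value (%) calculated from treated and non-treated counts before treatment and at observation.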

[3] = test system: Adoxophyes orana fasciata; assay: Spray test on Adoxophyes orana fasciata on apple seedling (Test Example 12); details: 168 h, first-instar larvae of Adoxophyes orana fasciata on apple seedling, 20 ml spray, seven days after spraying
Experimental: On the other hand, 20 ml of the test spray solution was each sprayed on an apple seedling (28 days after sowing, a tree height of about 15 cm) planted in a plastic cup. After the drug solution sprayed on the apple was air-dried, about 30 first-instar larvae of Adoxophyes orana fasciata were released. Seven days after spraying, the number of surviving Adoxophyes orana fasciata on the apple seedling was investigated, and the controlling value was calculated according to the following equation. Controlling value (%)={1−(Cb×Tai)/(Cai×Tb)}×100 In the equation, the symbols represent as follows. Cb: the number of insects in a non-treated section before treatment Cai: the number of insects in a non-treated section on observation Tb: the number of insects in a treated section before treatment Tai: the number of insects in a treated section on observation

Blattella germanica [4] = assay: Knockdown spray test on Blattella germanica, 2.0% w/v oil formulation (Test Example 1); details: topical, 0.25 h, active ingredient 2.0% w/v, 1.5 ml sprayed, within 15 minutes, read-out: knockdown rate of the test insects within 15 minutes
In short: (§1)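 Ten German cockroaches (5 males, 5 females) in a mesh-bottomed, butter-walled container were sprayed with 1.5 ml test solution from 60 cm at 0.42 kg/cm^2 inside a chamber.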

Musca domestica [5] = assay: Knockdown spray test on adult Musca domestica (Test Example 3); details: topical, 0.25 h, active ingredient 2.0% w/v, 0.5 ml sprayed, within 15 minutes, read-out: knockdown rate of the test insects within 15 minutes
In short: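 Ten adult house flies (5 male, 5 female) in a gauze-covered cup sprayed with 0.5 ml test solution from 30 cm at 0.9 kg/cm^2 inside a chamber, then removed. Knocked-down flies counted at 2, 5 and 15 min and expressed as % of insects tested.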

Culex pipiens pallens [6] = assay: Knockdown spray test on adult Culex pipiens pallens (Test Example 4); details: topical, 0.25 h, active ingredient 0.1% w/v, 0.5 ml sprayed, within 15 minutes, read-out: knockdown rate of the test insects within 15 minutes
In short: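 Ten adult mosquitoes in a gauze-covered cup inside a 46×46×70 cm chamber were sprayed with 0.5 ml of test solution from 30 cm at 0.4 kg/cm^2. The cup was removed at once, and knocked-down insects were counted at 2, 5 and 15 min; knockdown rate (%) = knocked-down/tested ×100.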

Aphis gossypii = assay: Foliar spray test on Aphis gossypii on cucumber (Test Example 8); details: 144 h, 500 ppm spray 20 ml/cup, Sir days after spraying, read-out: controlling value
Experimental: On the other hand, cucumber was planted in a polyethylene cup and grown until the first true leaf was spread, and about 20 Aphis gossypii were allowed to parasitize the cucumber. One day after, the test spray solution was sprayed to the cucumber at a ratio of 20 ml/cup. Sir days after spraying, the number of Aphis gossypii was investigated, and the controlling value was calculated according to the following equation. Controlling value (%)={1−(Cb×Tai)/(Cai×Tb)}×100 In the equation, the symbols represent as follows. Cb: the number of insects in a non-treated section before treatment Cai: the number of insects in a non-treated section on observation Tb: the number of insects in a treated section before treatment Tai: the number of insects in a treated section on observation

Spodoptera litura = assay: Foliar spray test on Spodoptera litura on cabbage (Test Example 11); details: 96 h, fourth instar larvae of Spodoptera litura on cabbage, 500 ppm spray 20 ml/cup, after 4 days, read-out: controlling value
In short: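 Cabbage is grown in cups to the third–fourth true leaf and sprayed at 20 ml/cup. Once the spray has dried, 10 fourth-instar larvae are released per cup and survivors are counted after 4 days. Controlling value (%) is corrected using pre-treatment and observation counts in treated and untreated sections.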

Blattella germanica [7] = assay: Knockdown spray test on Blattella germanica, 0.1% w/v oil formulation (Test Example 2); details: topical, 0.25 h, active ingredient 0.1% w/v, 1.5 ml sprayed, within 15 minutes, read-out: knockdown rate of the test insects within 15 minutes
In short: as §1

Musca domestica [8] = assay: Filter paper/sucrose bait death rate test on Musca domestica (Test Example 5); details: female imagoes of Musca domestica, 0.7 ml on filter paper, after 24 hours
In short: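 Filter paper in a 5.5 cm cup dosed with 0.7 ml test drug solution, with 30 mg sucrose as bait. Ten female adult houseflies released and cup sealed. Dead insects counted after 24 h; death rate (%) = dead/tested × 100.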

Row | SMILES | pest or weed control at 3.5 ppm (Culex pipiens pallens [1]) [%] | pest or weed control at 3.5 ppm (Culex pipiens pallens [2]) [%] | pest or weed control at 500 ppm (Plutella xylostella) [%] | pest or weed control at 500 ppm [3] [%] | pest or weed control at 2 % strength (Blattella germanica [4]) [%] | pest or weed control at 2 % strength (Musca domestica [5]) [%] | pest or weed control at 0.1 % strength (Culex pipiens pallens [6]) [%] | pest or weed control at 500 ppm (Aphis gossypii) [%] | pest or weed control at 500 ppm (Spodoptera litura) [%] | pest or weed control at 0.1 % strength (Blattella germanica [7]) [%] | pest or weed control at 500 ppm (Musca domestica [8]) [%]
1 | O=C(NCC1CCS(=O)(=O)C1)c1cc(COCc2ccccc2)on1 (stereo not shown) [(39), N-(1,1-dioxotetrahydrothiophen-3-ylmethyl)-5-benzyloxymethylisoxazole-3-carboxamide] | ≥ 90 | ≥ 90 | ≥ 90 | 100 | – | – | – | – | – | – | –
2 | O=C(NCC1CCOCC1)c1cc(COCc2cccc(C(F)(F)F)c2)on1 [(65)] | – | – | ≥ 90 | 100 | ≥ 80 | ≥ 80 | ≥ 80 | ≥ 90 | ≥ 80 | – | –
3 | O=C(NCC1CCOCC1)c1cc(COCc2ccc(Cl)c(Cl)c2)on1 [(73), N-(tetrahydropyran-4-ylmethyl)-5-(3,4-dichlorobenzyloxymethyl)isoxazole-3-carboxamide] | – | ≥ 90 | ≥ 90 | 100 | – | – | ≥ 80 | ≥ 90 | ≥ 80 | ≥ 80 | –
4 | O=C(NCC1CCOC1)c1cc(COCC2Oc3ccccc3O2)on1 (stereo not shown) [(122), N-(tetrahydrofuran-3-ylmethyl)-5-(1,3-benzodioxolan-2-ylmethoxymethyl)isoxazole-3-carboxamide] | – | – | – | 100 | – | – | ≥ 80 | – | – | ≥ 80 | –
5 | O=C(NCC1CCOC1)c1cc(CCCCCCCOc2ccc3ccccc3n2)on1 (stereo not shown) [(150), N-(tetrahydrofuran-3-ylmethyl)-5-[7-(2-quinolyloxy)heptyl]isoxazole-3-carboxamide] | ≥ 90 | ≥ 90 | ≥ 90 | 100 | – | ≥ 80 | ≥ 80 | – | – | – | ≥ 90
6 | O=C(NCC1CCOC1)c1noc(COCc2ccccc2)c1CF (stereo not shown) [(170), N-(tetrahydrofuran-3-ylmethyl)-(5-benzyloxymethyl-4-fluoromethyl)isoxazole-3-carboxamide] | ≥ 90 | ≥ 90 | ≥ 90 | 100 | – | – | ≥ 80 | – | – | ≥ 80 | –
7 | O=C(NCC1CCOC1)c1noc(COCc2ccccc2)c1C(F)F (stereo not shown) [(171), N-(tetrahydrofuran-3-ylmethyl)-(5-benzyloxymethyl-4-difluoromethyl)isoxazole-3-carboxamide] | ≥ 90 | ≥ 90 | ≥ 90 | 100 | – | – | ≥ 80 | – | ≥ 80 | – | –
8 | O=C(NCC1CCOCC1)c1cc(COc2ccc(Cl)c(Cl)c2)on1 [(183)] | ≥ 90 | ≥ 90 | – | 100 | – | – | ≥ 80 | – | ≥ 80 | – | –
9 | O=C(NCC1CCOC1)c1cc(CCCc2ccc3c(c2)OCO3)on1 (stereo not shown) [(234), N-(tetrahydrofuran-3-ylmethyl)-5-[3-(1,3-benzodioxolan-5-yl)propyl]isoxazole-3-carboxamide] | ≥ 90 | – | ≥ 90 | 100 | – | – | ≥ 80 | – | ≥ 80 | ≥ 80 | ≥ 90
